Results reported in patent US20120185956A1, “GLOBAL NAV1.7 KNOCKOUT MICE AND USES” (priority 2011, published 2012).

How the values were obtained:
male mice (CD1 strain) = settings: mouse, in vivo
[1] = test system: rats (Sprague-Dawley, male); settings: rat, in vivo
Description: Veratridine was injected intra-plantar at 30 micrograms.
Known preclinical and clinical analgesics were tested to see if they could prevent veratridine-induced behaviors.

NaV1.8 = NaV1.8 (Rattus norvegicus, UniProt Q62968); settings: cited from earlier work
NaV1.9 = NaV1.9 (Rattus norvegicus, UniProt O88457); settings: cited from earlier work
NaV1.5 = NaV1.5 (Rattus norvegicus, UniProt P15389); settings: cited from earlier work
hNaV1.7 = target: T1, hNaV1.7 (Homo sapiens, UniProt Q15858); type: cell-based
T1 construct: expressed in transfected cells; host or cells: HEK 293
T1 sequence (Q15858 whole entry): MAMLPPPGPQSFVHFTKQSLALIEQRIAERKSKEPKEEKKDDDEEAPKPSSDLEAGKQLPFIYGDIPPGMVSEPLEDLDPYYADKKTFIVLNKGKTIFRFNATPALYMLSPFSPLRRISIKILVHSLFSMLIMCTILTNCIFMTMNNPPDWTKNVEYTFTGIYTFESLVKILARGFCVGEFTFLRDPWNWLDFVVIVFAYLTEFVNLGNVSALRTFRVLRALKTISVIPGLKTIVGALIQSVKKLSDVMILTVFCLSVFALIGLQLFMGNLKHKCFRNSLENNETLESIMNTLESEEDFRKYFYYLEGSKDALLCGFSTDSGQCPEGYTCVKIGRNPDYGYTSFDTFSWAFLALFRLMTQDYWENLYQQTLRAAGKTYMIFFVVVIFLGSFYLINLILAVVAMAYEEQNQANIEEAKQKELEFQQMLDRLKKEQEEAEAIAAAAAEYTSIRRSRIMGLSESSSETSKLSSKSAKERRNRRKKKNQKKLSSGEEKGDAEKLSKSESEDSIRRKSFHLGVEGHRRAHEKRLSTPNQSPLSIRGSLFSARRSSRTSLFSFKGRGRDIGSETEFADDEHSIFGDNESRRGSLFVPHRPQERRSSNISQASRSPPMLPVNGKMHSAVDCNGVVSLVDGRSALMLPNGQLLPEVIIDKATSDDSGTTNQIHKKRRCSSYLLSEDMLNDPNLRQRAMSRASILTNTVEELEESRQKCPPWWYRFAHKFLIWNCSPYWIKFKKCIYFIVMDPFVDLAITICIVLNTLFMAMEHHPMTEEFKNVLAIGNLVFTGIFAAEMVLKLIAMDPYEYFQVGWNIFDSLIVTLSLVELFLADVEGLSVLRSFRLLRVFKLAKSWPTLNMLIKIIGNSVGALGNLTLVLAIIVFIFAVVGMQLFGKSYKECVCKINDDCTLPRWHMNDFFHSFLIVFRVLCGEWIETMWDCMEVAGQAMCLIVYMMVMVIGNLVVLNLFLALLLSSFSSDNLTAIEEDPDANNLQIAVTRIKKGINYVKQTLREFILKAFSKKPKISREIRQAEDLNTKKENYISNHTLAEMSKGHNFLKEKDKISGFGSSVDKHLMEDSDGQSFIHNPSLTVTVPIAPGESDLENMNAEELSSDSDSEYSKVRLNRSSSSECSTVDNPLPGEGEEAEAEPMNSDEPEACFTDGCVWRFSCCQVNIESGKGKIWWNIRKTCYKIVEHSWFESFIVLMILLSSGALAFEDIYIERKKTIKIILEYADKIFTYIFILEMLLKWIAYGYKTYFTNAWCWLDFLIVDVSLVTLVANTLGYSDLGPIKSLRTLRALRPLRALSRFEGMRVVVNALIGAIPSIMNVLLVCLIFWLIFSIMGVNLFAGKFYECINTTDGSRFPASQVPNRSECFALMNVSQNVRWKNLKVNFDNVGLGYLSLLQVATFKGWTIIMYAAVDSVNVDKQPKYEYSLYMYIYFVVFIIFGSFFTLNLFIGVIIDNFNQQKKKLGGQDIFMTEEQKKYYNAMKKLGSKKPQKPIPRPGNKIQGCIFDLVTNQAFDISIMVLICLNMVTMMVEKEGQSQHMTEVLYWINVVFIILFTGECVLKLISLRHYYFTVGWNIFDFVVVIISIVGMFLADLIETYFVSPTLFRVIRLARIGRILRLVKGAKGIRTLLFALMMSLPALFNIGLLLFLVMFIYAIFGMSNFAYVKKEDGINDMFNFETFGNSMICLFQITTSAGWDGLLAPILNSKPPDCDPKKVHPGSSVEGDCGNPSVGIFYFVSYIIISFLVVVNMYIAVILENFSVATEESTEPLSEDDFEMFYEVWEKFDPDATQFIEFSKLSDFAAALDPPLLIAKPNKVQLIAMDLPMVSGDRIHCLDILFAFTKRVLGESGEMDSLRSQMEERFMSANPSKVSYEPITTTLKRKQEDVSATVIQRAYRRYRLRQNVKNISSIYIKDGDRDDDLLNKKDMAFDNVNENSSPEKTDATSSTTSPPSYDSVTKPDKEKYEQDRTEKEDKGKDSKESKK

Chain of NaV1.8 (Q62968 whole entry, looked up): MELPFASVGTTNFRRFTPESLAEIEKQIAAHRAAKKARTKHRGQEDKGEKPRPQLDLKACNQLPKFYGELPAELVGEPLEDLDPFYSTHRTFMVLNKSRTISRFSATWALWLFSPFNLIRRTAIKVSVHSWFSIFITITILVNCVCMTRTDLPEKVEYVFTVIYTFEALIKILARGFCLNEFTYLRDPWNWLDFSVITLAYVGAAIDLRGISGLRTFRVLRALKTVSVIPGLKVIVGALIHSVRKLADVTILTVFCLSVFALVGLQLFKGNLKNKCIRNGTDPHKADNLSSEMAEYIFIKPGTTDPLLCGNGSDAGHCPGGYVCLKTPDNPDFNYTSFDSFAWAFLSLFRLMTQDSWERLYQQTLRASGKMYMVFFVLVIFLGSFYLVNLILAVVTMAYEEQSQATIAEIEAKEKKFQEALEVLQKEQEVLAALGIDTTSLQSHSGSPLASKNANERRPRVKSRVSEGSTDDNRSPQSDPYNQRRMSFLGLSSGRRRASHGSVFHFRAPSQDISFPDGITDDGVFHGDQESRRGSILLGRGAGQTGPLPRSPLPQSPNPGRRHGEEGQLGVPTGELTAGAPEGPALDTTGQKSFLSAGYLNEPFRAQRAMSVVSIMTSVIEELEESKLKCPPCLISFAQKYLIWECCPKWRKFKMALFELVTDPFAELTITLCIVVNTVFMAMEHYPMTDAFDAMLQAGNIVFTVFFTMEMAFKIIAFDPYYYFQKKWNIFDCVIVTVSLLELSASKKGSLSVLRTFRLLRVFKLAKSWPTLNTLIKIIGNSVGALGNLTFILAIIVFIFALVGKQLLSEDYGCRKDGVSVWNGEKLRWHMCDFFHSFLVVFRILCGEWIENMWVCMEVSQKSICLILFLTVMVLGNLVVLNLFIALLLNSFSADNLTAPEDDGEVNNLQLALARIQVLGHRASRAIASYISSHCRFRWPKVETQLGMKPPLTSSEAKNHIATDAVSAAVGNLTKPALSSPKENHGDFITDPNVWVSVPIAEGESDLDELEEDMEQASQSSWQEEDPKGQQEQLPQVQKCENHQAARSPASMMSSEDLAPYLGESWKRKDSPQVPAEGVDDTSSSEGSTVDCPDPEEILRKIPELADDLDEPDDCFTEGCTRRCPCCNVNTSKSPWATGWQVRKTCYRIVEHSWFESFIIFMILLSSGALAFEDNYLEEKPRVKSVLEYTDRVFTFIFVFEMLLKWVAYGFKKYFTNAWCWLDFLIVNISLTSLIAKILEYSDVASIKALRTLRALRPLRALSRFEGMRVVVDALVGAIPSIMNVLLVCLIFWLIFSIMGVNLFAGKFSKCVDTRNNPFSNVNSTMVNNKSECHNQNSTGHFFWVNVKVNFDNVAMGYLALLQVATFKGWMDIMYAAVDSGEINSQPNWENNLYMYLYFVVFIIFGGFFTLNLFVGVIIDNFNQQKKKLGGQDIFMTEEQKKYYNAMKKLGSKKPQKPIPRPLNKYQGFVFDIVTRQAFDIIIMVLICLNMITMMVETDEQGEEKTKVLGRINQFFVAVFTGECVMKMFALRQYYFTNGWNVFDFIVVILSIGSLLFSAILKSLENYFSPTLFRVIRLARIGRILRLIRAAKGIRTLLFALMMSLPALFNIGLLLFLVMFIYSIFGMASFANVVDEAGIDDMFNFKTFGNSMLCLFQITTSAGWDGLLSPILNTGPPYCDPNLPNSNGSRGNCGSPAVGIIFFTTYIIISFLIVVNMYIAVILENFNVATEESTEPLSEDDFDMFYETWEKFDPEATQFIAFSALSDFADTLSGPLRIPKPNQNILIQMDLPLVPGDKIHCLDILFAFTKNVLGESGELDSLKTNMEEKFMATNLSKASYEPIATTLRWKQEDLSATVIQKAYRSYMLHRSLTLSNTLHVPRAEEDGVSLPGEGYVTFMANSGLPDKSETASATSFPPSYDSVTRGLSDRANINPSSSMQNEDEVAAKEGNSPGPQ

SMILES: COc1ccc(C(=O)O[C@H]2CC[C@@]3(C)[C@@H]4CC[C@H]5[C@]6(O)C[C@H](O)[C@@]7(O)[C@@H](CN8C[C@@H](C)CC[C@H]8[C@@]7(C)O)[C@]6(O)C[C@@]53O[C@]24O)cc1OC [veratridine, 4α,9-Epoxy-3β-veratroyloxy-5β-cevan-4β,12,14,16β,17,20-hexaol]
- lifting behavior caused by veratridine (male mice (CD1 strain)): caused equivalent lifting behavior
- pain-related behaviors caused by veratridine injected into the paw [1]: caused two separate pain-related behaviors
- side effects of veratridine [1]: variable neurological side effects

SMILES: NC1=N[C@H](O)[C@H]2[C@H]3O[C@]4(O)O[C@@H]([C@@H](O)[C@@]2(N1)[C@@H]4O)[C@]3(O)CO [TTX, tetrodotoxin]
- block by TTX (NaV1.8): resistant to block
- block by TTX (NaV1.9): resistant to block
- block by TTX (NaV1.5): resistant to block

SMILES: Cc1cccc(C)c1OCC(C)N (centres unmarked) [Mexiletine, mexiletine]
- effects of veratridine (lifting) (male mice (CD1 strain)): blocked
- lifting/licking response to deltamethrin (male mice (CD1 strain)): prevented the lifting/licking response
- lifting/licking response to grayanotoxin III (male mice (CD1 strain)): prevented the lifting/licking response
- Significant Reversal of Edema [1]: Yes
- Significant Reversal of Flinching [1]: Yes
- Significant Reversal of Lifting [1]: Yes
- veratridine-induced lifting and flinching behaviors ([1]; po): prevented in a dose-dependent manner

SMILES: CN1C(=O)CN=C(c2ccccc2)c2cc(Cl)ccc21 [Diazepam]
- Significant Reversal of Edema [1]: No
- Significant Reversal of Flinching [1]: No
- Significant Reversal of Lifting [1]: No
- sodium channel activator-induced pain-like behaviors (licking, flinching) [1]: ineffective

SMILES: CC1(O)CC23CC(O)C4(O)C(CC(O)C4(C)C)C(C)(O)C2CCC1C3O (centres unmarked) [grayanotoxin III]
- inactivation during the test pulse (hNaV1.7): did not inactivate
- voltage at which sodium currents start to be activated (hNaV1.7): −95 mV
- response to injected sodium channel modulator (male mice (CD1 strain)): produced a lifting/licking response

SMILES: NCC1(CC(=O)O)CCCCC1 [Gabapentin, gabapentin]
- Significant Reversal of Edema [1]: No

SMILES: COc1ccc2cc([C@H](C)C(=O)O)ccc2c1 [Naproxen, naproxen]
- Significant Reversal of Edema [1]: No

SMILES: CNCC[C@H](Oc1cccc2ccccc12)c1cccs1 [Duloxetine, duloxetine]
- Significant Reversal of Edema [1]: No
- sodium channel activator-induced pain-like behaviors (licking, flinching) [1]: inhibited somewhat

SMILES: CN1CC[C@]23c4c5ccc(O)c4O[C@H]2[C@@H](O)C=C[C@H]3[C@H]1C5 [Morphine, morphine]
- Significant Reversal of Edema [1]: No

SMILES: CC1(C)[C@H](C(=O)O[C@H](C#N)c2cccc(Oc3ccccc3)c2)[C@@H]1C=C(Br)Br [deltamethrin]
- response to injected sodium channel modulator (male mice (CD1 strain)): produced a lifting/licking response
